From patent US10428099B2, “Pharmaceutical co-crystal composition and use thereof” (SYN-NAT PRODUCTS ENTERPRISE LLC, priority 2015, dated 2019)
Like-named read-outs stand apart in the source and are kept apart here.

What was measured:
HL-7002 cells [1] = experiment: cells; conditions: Homo sapiens, Hepatocyte
HCT-116 cells = experiment: MTS cell viability assay in colorectal cancer cell line HCT-116; assay type: cell-based; conditions: step-wise concentrations 0.01 to 300 μM, OD490, FIG. 5, read-out: IC50 for the reduction of HCT-116 cell number
Protocol: (§1) The index of cell growth repression ratio was obtained by comparing the OD490 data of treatment group to the negative control. The drug response rate IC50 was calculated with the SPSS 16.0 system.
(§2) The cells were cultured in RPMI+5% Fetal Bovine Serum (FBS).
(§3) The cells were monitored daily, and the cell viability was evaluated with the Promega CellTiter 96 AQueous One Solution Cell Proliferation Assay (Promega, Madison, Wis., USA) according to the manufacture manuals. The cell viability was monitored at OD490 reading in a bio-spectrometer (Perkin Elmer, Walthan, Mass., USA).
(§4) Data analysis: The OD490 reading data were collected hourly from 1 h to 4 h after the addition of lysis buffer. The index of cell growth repression ratio was obtained by comparing the OD490 data of treatment to the negative control. The drug response rate IC50 was calculated with the SPSS 16.0.

HT29 cells = experiment: MTS cell viability assay in colorectal cancer cell line HT29; assay type: cell-based; conditions: step-wise concentrations 0.01 to 300 μM, OD490, FIG. 6
Protocol: HT29 cells are a colorectal cancer cell line. […] The index of cell growth repression ratio was obtained by comparing the OD490 data of treatment group to the negative control. The drug response rate IC50 was calculated with the SPSS 16.0 system.
as §2, §3, §4

HL-7002 cells [2] = conditions: step-wise concentrations 0.01 to 300 μM, OD490, FIG. 3 and FIG. 7
HEK293 cells = conditions: step-wise concentrations 0.01 to 300 μM, OD490, FIG. 4 and FIG. 8
PC-3 cells = experiment: MTS cell viability assay (CellTiter 96 AQueous One) in PC-3 prostate cancer cells; assay type: cell-based, human; conditions: step-wise concentrations 0.01 to 300 μM, OD490, FIG. 1
Protocol: as §1
(§5) Cell culture: Prostate cancer cell lines LNCaP and PC-3 were purchased from ATCC (Manassas, Va.). […] The cells were cultured in RPMI+5% Fetal Bovine Serum (FBS).
(§6) The cells treated with the solvents were used as the negative control, and cisplatin and docetaxel were used as the positive controls. The cells were monitored daily, and the cell viability was evaluated with the Promega CellTiter 96 AQueous One Solution Cell Proliferation Assay (Promega, Madison, Wis., USA) according to the manufacture manuals. The cell viability was monitored at OD490 reading in a bio-spectrometer (Perkin Elmer, Walthan, Mass., USA).
as §4

LNCaP cells = experiment: MTS cell viability assay (CellTiter 96 AQueous One) in LNCaP prostate cancer cells; assay type: cell-based, human; conditions: step-wise concentrations 0.01 to 300 μM, OD490, FIG. 2
Protocol: as §1, §5, §6
Data analysis: The OD490 reading data were collected hourly from 1 h to 4 h after the addition of lysis buffer. The index of cell growth repression ratio was obtained by comparing the OD490 data of treatment to the negative control.

Molecule | IC50 (HL-7002 cells [1]) | IC50 (HCT-116 cells) | IC50 (HT29 cells) | IC50 (HL-7002 cells [2]) | IC50 (HEK293 cells) | IC50 (PC-3 cells) | IC50 (LNCaP cells)
CC(=O)O[C@@]12CO[C@@H]1C[C@H](O)[C@@]1(C)C(=O)[C@H](O)C3=C(C)[C@@H](OC(=O)[C@H](O)[C@@H](NC(=O)OC(C)(C)C)c4ccccc4)C[C@@](O)([C@@H](OC(=O)c4ccccc4)[C@H]21)C3(C)C [docetaxel] | 95 nM |  |  |  |  |  | 
O=C1[O][Pt]2([NH][C@@H]3CCCC[C@H]3[NH]2)[O]C1=O [oxaliplatin] |  | 8150 nM | 30000 nM | 2440 nM | 10100 nM |  | 
cisplatin |  |  |  | 2010 nM | 6900 nM | 2490 nM | 2240 nM
